Data set [1] can be described thus: logP (logarithm of the octanol/water partition coefficient). It is filed as physicochemical. From the text: Hydrophobic photographic additives are conveniently incorporated in a hydrophilic colloid layer of a photographic element by dissolving the hydrophobic additive in an organic solvent and then dispersing the organic solution in an aqueous solution to form a homogenized dispersion. […] The low hydrophobicity is essential to achieve efficient post-process migration of these compounds from the adjacent non-imaging layers into the magenta imaging layer. The combination of low hydrophobicity and high melting point makes it difficult to prepare stable dispersions of these compounds by homogenization in an aqueous solution even if relatively large amounts of water-immiscible organic solvent is used to dissolve the compounds. The exemplified compounds are accordingly dispersed in the examples of U.S. Ser. No. 08/255,512 by a solid particle dispersion process. In this method size reduction of the epoxy compound is achieved by attrition with media such as zirconia beads instead of by shearing action on a liquid solution. The solid particle dispersion process is relatively inefficient compared to homogenization and often requires several days of grinding in order to achieve the desired level of size reduction.

The nature of data set [2]: Dispersion stability in constant temperature bath at 45 °C. It counts as physicochemical. Conditions: 3.0 g epoxide with 1.0 g tri(2-ethylhexyl) phosphate in gelatin/Alkanol XC, E1 disintegrated with significant settling, SI-4 no evidence of settling or macroscopic coagulation. As for the experimental part: 3.0 grams of E1 was combined with 1.0 gram of the water-immiscible organic solvent tri(2-ethylhexyl) phosphate. The mixture was heated until the oil phase was homogeneous. 26.0 grams of a 12% w/w solution of Type IV gelatin in water was combined with 43.8 grams of water and 4.0 grams of Alkanol XC to constitute the aqueous phase. The aqueous phase was maintained at 70° C. The oil phase was combined with the aqueous phase while stirring. The mixture was then passed twice through the microfluidizer at a pressure of 10,000 psi to obtain the dispersion.
Both dispersions were placed in a constant temperature bath set at 45° C.

As to `O=C(CCCCCCCCC1CO1)Oc1ccc(NS(=O)(=O)c2ccc(F)cc2F)cc1` (stereo not shown) [E1], the logP in data set [1] amounted to 4.5. In addition, the “time at which dispersion disintegrated / showed settling or macroscopic coagulation” value in data set [2] was 6 h.

Take `O=C(CCCCCCCCC1CO1)Oc1ccc(NS(=O)(=O)c2ccccc2)cc1` (stereo not shown) [SI-4]: the log partition coefficient (logP) in data set [1] amounted to 4.3. Further, the “time at which dispersion disintegrated / showed settling or macroscopic coagulation” value in data set [2] was above 12 h.

One may read the logP as the decadic logarithm of the partition coefficient of the neutral form, usually between octanol and water.
